From US5691366A, “Nitro compounds, process for preparation thereof and use thereof” (Fujisawa Pharmaceutical Co., Ltd., priority 1991, dated 1997)

Key:
[1] = system: Mean Arterial Blood Pressure in Conscious Rats; assay: Effect on mean arterial blood pressure in conscious rats (oral); format: in vivo, rat (male Sprague-Dawley); details: for Hypotensive effect T 1/2: time to recover to half of maximal decrease; for Hypotensive effect Dur.: time to recover to 5% of maximal decrease; for inhibition in vivo at 10 mg/kg / inhibition in vivo at 32 mg/kg: Rattus norvegicus, po, maximal % decrease of mean blood pressure, read-out: Hypotensive effect R max
Experimental: Male Sprague-Dawley rats, aged 9-11 weeks, were anesthetized with ether and a polyethylene cannula filled with heparin solution was inserted into the femoral artery of the rats to measure mean blood pressure. Mean blood pressure was measured with a pressure transducer and recorded on a polygraph. Two hours after operation, the drug suspended in 0.5% methyl cellulose was administered orally in a volume of 5 ml/kg. Oral hypotensive effects of each compound were expressed as the maximal decrease (R max), the half time (T 1/2) and the duration (Dur.). Briefly, R max was expressed as maximal % change compared to mean blood pressure prior to the administration of compound. T 1/2 was expressed as a time during which the hypotensive effect recovered to half of the maximal decrease. Duration was expressed as a time during which the hypotensive effect recovered to 5% of the maximal decrease.

[2] = system: Mean Arterial Blood Pressure in Anesthetized Rats; assay: Effect on mean arterial blood pressure in anesthetized rats (intravenous); format: in vivo, rat (male Sprague-Dawley); details: for Hypotensive effect T 1/2: i.v., time to recover to half of maximal decrease
Experimental: Male Sprague-Dawley rats, aged 9-12 weeks, were anesthetized with urethane (1.4 g/kg i.p.). A polyethylene cannula filled with heparin solution was inserted into the femoral artery of the rats to measure mean blood pressure. Mean blood pressure was measured with a pressure transducer and recorded on a polygraph. The test compound dissolved in ethanol, polyethylene glycol and distilled water (1:1:2), were administered intraveneously in a volume of 0.25 ml/kg. Intravenous hypothypotensive effects of each compound were expressed as the maximal decrease (R max) and the half time (T 1/2). Briefly, R max was expressed as maximal % change compared to mean blood pressure prior to the administration of compound. T 1/2 was expressed as a time during which the hypotensive effect recovered to half of the maximal decrease.

[3] = Rattus norvegicus, iv, 0.32 mg/kg, maximal % decrease of mean blood pressure, read-out: Hypotensive effect R max
[4] = Rattus norvegicus, iv, 1.0 mg/kg, maximal % decrease of mean blood pressure, read-out: Hypotensive effect R max

SMILES | Hypotensive effect T 1/2 ([1]; 10 mg/kg) | Hypotensive effect Dur. ([1]; 10 mg/kg) | Hypotensive effect T 1/2 ([1]; 32 mg/kg) | inhibition in vivo at 10 mg/kg ([1]; 10 mg/kg) | inhibition in vivo at 0.32 mg/kg [2, 3] | Hypotensive effect T 1/2 ([2]; 0.32 mg/kg) | other results
CCC(=CC(CNC(=O)c1cccnc1)=NO)C(CC)[N+](=O)[O-] (single isomer, unassigned) [Example 25 B, N-(4-Ethyl-2-hydroxyimino-5-nitro-3-hepten-1-yl)-3-pyridinecarboxamide] | 14.6 min | – | – | – | – | – | –
O=C(NCC(C=C1CCCCC1[N+](=O)[O-])=NO)c1cccnc1 (centres unmarked) [Example 21, N-[2-Hydroxyimino-3-(2-nitrocyclohexylidene)propyl]-3-pyridinecarboxamide] | 34.1 min | 67.7 min | 88.1 min | 34.3% | 26.5% | 13.1 min | Hypotensive effect Dur. ([1]; 32 mg/kg): > 300 min; inhibition in vivo at 32 mg/kg ([1]; 32 mg/kg): 34.3%
CCC(=CC(CNC(=O)c1cccnc1SC)=NO)C(C)[N+](=O)[O-] (single isomer, unassigned) [Example 31 A, N-(4-Ethyl-2-hydroxyimino-5-nitro-3-hexen-1-yl)-2-methylthio-3-pyridinecarboxamide] | 10.4 min | – | – | 14.9% | 24.3% | – | –
COCC(C(C)=CC(CNC(=O)c1ccncc1)=NO)[N+](=O)[O-] (centres unmarked) [Example 22, N-(2-Hydroxyimino-6-methoxy-4-methyl-5-nitro-3-hexen-1-yl)-4-pyridinecarboxamide] | 29.9 min | – | 63.2 min | 19.2% | 17.7% | – | inhibition in vivo at 32 mg/kg ([1]; 32 mg/kg): 25.7%; inhibition in vivo at 1 mg/kg [2, 4]: 35.9%; Hypotensive effect T 1/2 ([2]; 1.0 mg/kg): 24.9 min
CCC(=CC(CNC(=O)c1cccnc1O)=NO)C(C)[N+](=O)[O-] (single isomer, unassigned) [Example 33 A, N-(4-Ethyl-2-hydroxyimino-5-nitro-3-hexen-1-yl)-2-hydroxy-3-pyridinecarboxamide] | 18.3 min | – | – | 23.1% | 20.9% | 11.9 min | –
CC(=CC(CNC(=O)c1cccnc1)=NO)C(C)[N+](=O)[O-] (single isomer, unassigned) [Example 19 A, N-(2-Hydroxyimino-4-methyl-5-nitro-3-hexen-1-yl)-3-pyridinecarboxamide] | – | – | – | – | 40.3% | 12.6 min | –
CCC(=CC(CNC(=O)c1cccnc1)=NO)C(CC)[N+](=O)[O-] (single isomer, unassigned) [Example 25 A, N-(4-Ethyl-2-hydroxyimino-5-nitro-3-hepten-1-yl)-3-pyridinecarboxamide] | 22.5 min | – | 56.7 min | – | 24.1% | 13.1 min | inhibition in vivo at 32 mg/kg ([1]; 32 mg/kg): 26%
CC(C)C(=CC(CNC(=O)c1cccnc1)=NO)C(C)[N+](=O)[O-] (centres unmarked) [Example 20, N-(2-Hydroxyimino-4-isopropyl-5-nitro-3-hexen-1-yl)-3-pyridinecarboxamide] | 28.5 min | – | – | 20.1% | 3.8% | – | inhibition in vivo at 3.2 mg/kg ([2]; Rattus norvegicus, iv, 3.2 mg/kg, maximal % decrease of mean blood pressure, read-out: Hypotensive effect R max): 48.4%; Hypotensive effect T 1/2 ([2]; 3.2 mg/kg): 20.1 min
CCC(=CC(CNC(=O)c1cnccc1C(N)=O)=NO)C(C)[N+](=O)[O-] (centres unmarked) [Example 28, 3-[N-(4-Ethyl-2-hydroxyimino-5-nitro-3-hexen-1-yl)-carbamoyl]-4-pyridinecarboxamide] | – | – | – | – | 22.2% | – | inhibition in vivo at 1 mg/kg [2, 4]: 31.4%; Hypotensive effect T 1/2 ([2]; 1.0 mg/kg): 11.9 min
CCC(=CC(CNC(=O)C(N)=O)=NO)C(C)[N+](=O)[O-] (centres unmarked) [Example 40] | – | – | – | – | 52.3% | 11.3 min | –
CCC(=CC(CNC(=O)c1cccnc1C)=NO)C(C)[N+](=O)[O-] (single isomer, unassigned) [Example 30 B, N-(4-Ethyl-2-hydroxyimino-5-nitro-3-hexen-1-yl)-2-methyl-3-pyridinecarboxamide] | 20.9 min | – | – | – | – | 13.0 min | –
CCC(=CC(CNC(=O)c1ccc(C)nc1)=NO)C(C)[N+](=O)[O-] (centres unmarked) [Example 35, N-(4-Ethyl-2-hydroxyimino-5-nitro-3-hexen-1-yl)-6-methyl-3-pyridinecarboxamide] | 24.1 min | – | – | 31.1% | 41.7% | 13.7 min | –
CCC(=CC(CNC(=O)c1cccnc1C)=NO)C(C)[N+](=O)[O-] (single isomer, unassigned) [Example 30 A, N-(4-Ethyl-2-hydroxyimino-5-nitro-3-hexen-1-yl)-2-methyl-3-pyridinecarboxamide] | 36.0 min | 108.0 min | 56.2 min | 40.6% | 37.9% | 16.9 min | Hypotensive effect Dur. ([1]; 32 mg/kg): 211.1 min; inhibition in vivo at 32 mg/kg ([1]; 32 mg/kg): 39.3%
CCC(=CC(CNC(=O)Cc1cccnc1)=NO)C(C)[N+](=O)[O-] (centres unmarked) [Example 42, N-(4-Ethyl-2-hydroxyimino-5-nitro-3-hexen-1-yl)-3-pyridylacetamide] | – | – | – | – | 44.4% | 14.2 min | –
CCC(=CC(CNC(=O)c1ccncc1)=NO)C(C)[N+](=O)[O-] (centres unmarked) [Example 29, N-(4-Ethyl-2-hydroxyimino-5-nitro-3-hexen-1-yl)-4-pyridinecarboxamide] | 23.5 min | 72.5 min | 165 min | 31.4% | 35% | 12.3 min | Hypotensive effect Dur. ([1]; 32 mg/kg): > 300 min; inhibition in vivo at 32 mg/kg ([1]; 32 mg/kg): 37.1%
CCC(C(C)=CC(CNC(=O)c1cccnc1)=NO)[N+](=O)[O-] (single isomer, unassigned) [Example 18 B, N-(2-hydroxyimino-4-methyl-5-nitro-3-hepten-1-yl)-3-pyridinecarboxamide] | 26.4 min | 54.7 min | 56.1 min | – | – | – | Hypotensive effect Dur. ([1]; 32 mg/kg): 97.2 min; Hypotensive effect T 1/2 ([2]; 1.0 mg/kg): 20.2 min
CCC(=CC(CNC(=O)c1nc[nH]c1C)=NO)C(C)[N+](=O)[O-] (single isomer, unassigned) [Example 45 A, N-(4-Ethyl-2-hydroxyimino-5-nitro-3-hexen-1-yl)-5-methy-4-imidazolecarboxamide] | 26.6 min | 52.3 min | – | 35.4% | 31.2% | 11.9 min | –
CC(=CC(CNC(=O)c1cccnc1)=NO)C(C)[N+](=O)[O-] (single isomer, unassigned) [Example 19 B, N-(2-Hydroxyimino-4-methyl-5-nitro-3-hexen-1-yl)-3-pyridinecarboxamide] | – | – | – | – | – | 11.0 min | –
CCC(=CC(CNC(=O)c1sc(C)nc1C)=NO)C(C)[N+](=O)[O-] (centres unmarked) [Example 43, N-(4-Ethyl-2-hydroxyimino-5-nitro-3-hexen-1-yl)-2,4-dimethylthiazole-5-carboxamide] | – | – | – | – | 53.1% | – | –
CCC(=CC(CNC(C)=O)=NO)C(CC)[N+](=O)[O-] (centres unmarked) [Example 24, 1Acetylamino-4-ethyl-2-hydroxyimino-5-nitro-3-heptene] | 16.6 min | – | – | 40.7% | 31.8% | 13.6 min | –
CCC(=CC(CNC(=O)C(N)=O)=NO)C(C)[N+](=O)[O-] (centres unmarked) [Example 40 A] | 25.2 min | 71.1 min | – | 47.8% | – | – | –
CCC(C(C)=CC(CNC(=O)c1cccnc1)=NO)[N+](=O)[O-] (single isomer, unassigned) [Example 18 A, N-(2-hydroxyimino-4-methyl-5-nitro-3-hepten-1-yl)-3-pyridinecarboxamide] | 40.1 min | 57.0 min | 88.7 min | 25.7% | 10.2% | – | Hypotensive effect Dur. ([1]; 32 mg/kg): 156.4 min; inhibition in vivo at 32 mg/kg ([1]; 32 mg/kg): 46.9%; inhibition in vivo at 1 mg/kg [2, 4]: 33.6%; Hypotensive effect T 1/2 ([2]; 1.0 mg/kg): 31.5 min
